Here are results for 4 compounds from ChEMBL document CHEMBL1142601, “Biphenyl glycosides from the fruit of Pyracantha fortuneana” (J Nat Prod, 2006).

In the test the target is T1, Tyrosinase (Homo sapiens, UniProt P14679).
T1 sequence (P14679 whole entry): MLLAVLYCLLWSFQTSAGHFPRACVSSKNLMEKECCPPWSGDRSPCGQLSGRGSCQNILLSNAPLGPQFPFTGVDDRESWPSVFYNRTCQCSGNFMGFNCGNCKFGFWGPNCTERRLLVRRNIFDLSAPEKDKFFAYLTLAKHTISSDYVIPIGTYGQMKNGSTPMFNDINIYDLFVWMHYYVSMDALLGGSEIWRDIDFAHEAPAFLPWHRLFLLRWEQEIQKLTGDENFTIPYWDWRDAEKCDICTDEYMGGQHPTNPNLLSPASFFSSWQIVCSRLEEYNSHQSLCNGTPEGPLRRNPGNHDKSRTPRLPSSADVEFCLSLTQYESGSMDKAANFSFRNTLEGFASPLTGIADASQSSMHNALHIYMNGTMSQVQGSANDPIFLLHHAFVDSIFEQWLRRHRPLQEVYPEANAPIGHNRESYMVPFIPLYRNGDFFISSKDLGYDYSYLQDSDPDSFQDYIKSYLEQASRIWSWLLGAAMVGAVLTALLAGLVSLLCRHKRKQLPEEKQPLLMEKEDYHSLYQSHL
The experiment in a line: Inhibition of tyrosinase.
For orientation: IC50 means the concentration that gives 50% inhibition. A lower IC50 goes with higher potency. Turning to `COc1ccccc1-c1cc(OC)c(O)c(OC)c1O[C@@H]1O[C@H](CO)[C@@H](O)[C@H](O)[C@H]1O` [FORTUNEANOSIDE B], the IC50 was found to be 2210 µM.

On to `COc1cc(-c2ccccc2O[C@@H]2O[C@H](CO)[C@@H](O)[C@H](O)[C@H]2O)cc(OC)c1O` [FORTUNEANOSIDE C], for which the 50% inhibitory concentration (IC50) is 450 µM.

In the case of `COc1cc(-c2cccc(O[C@@H]3O[C@H](CO)[C@@H](O)[C@H](O)[C@H]3O)c2O)cc(OC)c1O` [FORTUNEANOSIDE D], the half-inhibitory concentration (IC50) was found to be 70 µM.

Turning to `COc1cc(-c2ccc(O[C@@H]3O[C@H](CO)[C@@H](O)[C@H](O)[C@H]3O)c(O)c2)cc(OC)c1O` [FORTUNEANOSIDE E], the IC50 came out at 140 µM.
